Measurements taken from paper PMC4912613, “A broad analysis of resistance development in the malaria parasite” (Nature Communications, 2016).
pEC50: −log10 of the molar value.

What was measured:
P. falciparum strain 3D7 = test: Asexual blood stage 3H-hypoxanthine incorporation assay, 3D7; assay type: cell-based, Plasmodium falciparum; settings: Plasmodium falciparum, 3D7, asexual stage, P. falciparum 3D7; read-out: 3D7 EC50
Procedure: The 48-h assay was carried out in a 96-well format following standard methods using the ^3H-hypoxanthine incorporation assay. The raw EC50 values corresponding to this assay can be found in Supplementary Data 3. Briefly, this assay relies on the parasite incorporation of labelled hypoxanthine that is proportional to P. falciparum growth. A culture of parasitized RBCs (0.5% parasitemia with a percentage of ring stage higher than 70% of total parasitemia, 2.0% haematocrit) in RPMI-1640, […] and 5 μM hypoxanthine was exposed to drug serial dilutions. Plates were incubated for 24 h at 37 °C, 5% CO2, 5% O2 and 90% N2. After 24 h of incubation, ^3H-hypoxanthine was added and plates were incubated for an additional 24-h period. After that, parasites were harvested on a glass fibre filter using a TOMTEC Cell Harvester 96. Filters were dried and melt-on scintillator sheets were used to determine the incorporation of ^3H-hypoxanthine. Radioactivity was measured using a microbeta counter. Data were normalized using the incorporation of the positive (parasitized RBCs without drug) and negative (same culture with artesunate at 2 μM) controls. All assays were conducted in triplicate using three independently grown cultures, and EC50 values were determined using the XLfit add-in module for Excel (version 2.3.1) from Grafit (version 5.3.1.3), where parameter h is the assay hill slope, x is the compound concentration and y is the inhibition of growth effect. The XLfit equation is: […]

[1] = system: Stage 5 gametocytes from P. falciparum NF54; test: Late-stage (stage V) gametocyte survival assay, MitoTracker; assay type: cell-based, Plasmodium falciparum; settings: for pEC50: Plasmodium falciparum, P. falciparum NF54, 72 h, read-out: Stage 5 Gametocyte EC50; for EC50 fold shift compared to asexual stage: Stage 5 Gametocyte EC50: gametocyte EC50 / 3D7 EC50
In short: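 Synchronized P. falciparum NF54 stage V gametocytes were exposed to compound (1.25 μM or 12.5 μM) for 72 h. MitoTracker Red CMXRos (500 nM final) was then added with saponin to lyse RBCs, and plates were imaged by high-content fluorescence. The readout was the number of metabolically active gametocytes per well.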

[2] = system: CYTb-G131S (cytb G131S, parent Dd2); test: Cross-resistance EC50 assay, CYTb-G131S; assay type: cell-based, Plasmodium falciparum; settings: Plasmodium falciparum, SYBR green 72 hour assay, synchronized parasites, 384-well format
Description: (§1) To evaluate potential overlapping activity against known antimalarial drug targets, we performed dose-response studies with each compound against our assembled set of drug-resistant lines and their corresponding parents, in an asexual blood stage proliferation assay (Table 1). Comparisons were made to the drug-sensitive strain 3D7 when a parent was unavailable (TM90C2A, W2 and Dd2). As laboratories conducted EC50 assays with different strains and protocols, all comparisons were made between assays from the same laboratory and under the same assay conditions. Compounds displaying >5-fold EC50 shifts relative to the parent or sensitive strain were flagged as having potentially non-novel targets. Average fold shifts per strain ranged from 0.82 to 2.34, with a median of 1.23 indicating there was not common resistance to any one resistant clone. No resistance patterns were observed when classifying the compounds based on chemical structure, but this was not surprising given the diversity of compounds chosen. On the other hand, given that these confirmed compounds were derived from larger unconfirmed hit lists to which some filtration criteria may have been applied (for example, elimination of obvious dihydrofolate reductase inhibitors[32]), some[10][11][12][13] pre-existing bias may exist in the set. […]
(§2) Alternatively, a SYBR Green-based proliferation approach was used for the 72-h assay, as previously described. Briefly, a culture of either synchronized or asynchronous parasitized RBCs (0.3% parasitemia and 4% haematocrit) in screening medium (identical to supplemented medium above except no serum was added) was exposed to serial drug dilutions. Plates were incubated at 37 °C and gassed with 93% N2, 4% CO2 and 3% O2 for 72 h. Following incubation, 10 × SYBR Green I (Invitrogen; supplied in 10,000 × concentration) in lysis buffer ([…], 5 mM EDTA, 0.16% Saponin wt per vol and 1.6% Triton X vol per vol) was added to the wells and the plates were incubated overnight at room temperature before plate reading. EC50 assays were repeated three times, taking the average EC50 value from each assay set, and removing any outliers using a single iteration of Grubbs' test, eliminating values with z-scores above the critical z-value (α=0.05). The raw EC50 values for synchronized parasites assayed in a 384-well format are listed in Supplementary Data 4. The raw EC50 values for asynchronous parasites assayed in a 96 or 1536-well format are listed in Supplementary Data 5.
(§3) EC50 values for each strain were compared with those of the corresponding parent strain to determine fold-shift changes and identify resistance. To minimize the cause variance between assays, all comparisons were conducted between strains assayed under identical conditions. A one-way ANOVA followed by a Dunnet's post-test was conducted in GraphPad Prism to identify significant changes between the parent and resistant strain.

[3] = system: CYTbQi (cytb G33A, parent Dd2); test: Cross-resistance EC50 assay, CYTbQi; assay type: cell-based; settings: Plasmodium falciparum, SYBR green 72 hour assay, synchronized parasites, 384-well format
Description: as §1, §2, §3

[4] = system: GNF156R (PfCARL L830V, S1076I and M81I, parent Dd2); test: Cross-resistance EC50 assay, GNF156R; assay type: cell-based; settings: Plasmodium falciparum, SYBR green 72 hour assay, asynchronized parasites, 96-well or 1536-well format
Description: as §1, §2, §3

[5] = system: ProRS (prolyl t-RNA synthetase L482H, parent Dd2); test: Cross-resistance EC50 assay, ProRS; assay type: cell-based; settings: Plasmodium falciparum, SYBR green 72 hour assay, synchronized parasites, 384-well format
Description: as §1, §2, §3

| Compound | pEC50 (P. falciparum strain 3D7) | pEC50 [1] | EC50 fold shift compared to asexual stage: Stage 5 Gametocyte EC50 [1] | pEC50 ([2]; strain CYTb:G131S (Dd2 parent)) | pEC50 ([3]; strain CYTbQi (Dd2 parent)) | EC50 [4] [µM] | pEC50 ([5]; strain ProRS (Dd2 parent)) | pEC50 ([2]; DD2, CYTb:G131S strain) | pEC50 ([3]; DD2, CYTbQi strain) | pEC50 ([5]; DD2, ProRS strain) |
| --- | --- | --- | --- | --- | --- | --- | --- | --- | --- | --- |
| COc1cc(-c2nc(-c3ccccc3)c(-c3ccccc3)[nH]2)ccc1OCCN(C)C [MMV027496] | 6.95 | < 4.90 | > 112 | 6.49 | 6.50 | 1.8 | 6.51 |  |  |  |
| CC(C)c1cccc(C(NC(=O)C2Cc3ccccc3CN2C(=O)c2cccc(N3CCOCC3)c2)C2CCCC2)c1 (stereo not shown) [MMV028038] | 6.27 | 5.93 | 2.19 | 6.34 | 6.47 | 0.654 | 6.53 |  |  |  |
| O=C(NCC(CCCN1CCC(c2c[nH]c3ccccc23)CC1)c1ccccc1)Nc1ccc(Cl)c(Cl)c1 (stereo not shown) [MMV029272] | 6.87 | 5.65 | 16.40 | 6.04 | 6.21 | 0.332 | 6.23 |  |  |  |
| CC(C)(C)OC(=O)N1CCN(c2ccccc2NC(=O)c2cccc(C(F)(F)F)c2Oc2ccc(F)cc2)CC1 [MMV030666] | 6.31 | 6.00 | 2.04 | 6.41 | 6.45 | 0.364 | 6.55 |  |  |  |
| CC(NCc1ccccc1)c1cc(Cl)ccc1O (stereo not shown) [MMV665789] | 5.90 | < 5.90 | > 1 | 6.04 | 6.17 | 0.681 | 6.48 |  |  |  |
| FC(F)(F)c1cccc(Nc2nc3ccccc3nc2Nc2cccc(C(F)(F)F)c2)c1 [MMV665794] | 7.00 | 6.08 |  | 6.76 | 6.89 | 0.135 | 7.03 |  |  |  |
| O=C(Nc1ccc(Cl)c(Cl)c1)Nc1ccc(Cl)c(Cl)c1 [MMV665852] | 5.93 | < 5.90 |  | 5.95 | 6.00 | 0.75 | 6.15 |  |  |  |
| OC(CNC1CCCCC1)Cn1c2ccc(I)cc2c2cc(I)ccc21 (stereo not shown) [MMV665882] | 7.14 | 6.49 | 4.44 | 7.34 | 7.60 | 0.068 | 7.60 |  |  |  |
| O=C(Nc1ccccc1O)c1ccc(Oc2cccc(C(=O)Nc3ccccc3O)c2)cc1 [MMV665888] | 5.92 | 5.53 | 2.46 | 6.00 | 6.22 | 0.67 | 6.31 |  |  |  |
| COc1ccc(C(=O)C2CC2c2ccc(Cl)cc2)cc1 (stereo not shown) [MMV665924] | 6.09 | < 5.90 | > 1.5 | 5.72 | 5.95 | 1.17 | 6.02 |  |  |  |
| CCC(C)NCC(O)(c1ccc(Cl)cc1)c1ccc(Cl)cc1 (stereo not shown) [MMV665928] | 6.31 | < 5.90 | > 2.5 | 6.17 | 6.31 | 0.682 | 6.44 |  |  |  |
| O=C(Nc1ccsc1C(=O)NC1CCCCC1)c1ccc(F)cc1 [MMV665939] | 5.98 | < 5.90 |  | 5.68 | 5.79 | 1.28 | 5.62 |  |  |  |
| Nc1ccc(-c2nc3cc(Cc4ccc5[nH]c(-c6ccc(N)cc6)nc5c4)ccc3[nH]2)cc1 [MMV665943] | 6.50 | 6.39 | 1.29 | 6.39 | 6.35 | 0.399 | 6.38 |  |  |  |
| O=C(NC(c1ccccc1)c1ccc2cccnc2c1O)c1ccccc1 (stereo not shown) [MMV666080] | 6.07 | 5.14 | 8.53 | 6.40 | 5.89 | 0.822 | 6.24 |  |  |  |
| COc1cc(C(=O)ON=C(N)Cc2cccc3ccccc23)cc(OC)c1OC [MMV666687] | 6.46 | 5.36 |  | 6.31 | 6.23 | 0.611 | 6.49 |  |  |  |
| c1cc(-c2cnc3ccc(-c4ccc(N5CCOCC5)cc4)nn23)ccn1 [MMV668311] | 7.32 | 6.06 | 18.31 | 7.20 | 7.18 | 0.031 | 7.21 |  |  |  |
| CN(C)CCCNCc1ccc(-c2ccc(Cl)c(Cl)c2)o1 [MMV673964] | 6.22 | 5.95 | 1.86 |  |  | 1.33 |  | 6.44 | 6.50 | 6.50 |
